What was measured:
[1] = test system: foxtail, giant; assay: Test C postemergence; format: in vivo, Setaria faberi; conditions: 10 days, 0 to 100 scale (0 no effect, 100 complete control)
Summary of the method: (§1)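 Pre: seeds in loam/sand, directed soil spray. Post: 1–2 leaf plants, 2–10 cm. Cmpd in non-phytotoxic solvent + surfactant. Greenhouse 10 d; visual rating vs untreated, 0 = none, 100 = complete control.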

[2] = test system: oat, wild; assay: Test C postemergence; format: in vivo, Avena fatua; conditions: 10 days, 0 to 100 scale (0 no effect, 100 complete control)
Summary of the method: as §1

[3] = test system: blackgrass; assay: Test C preemergence; format: in vivo, Alopecurus myosuroides
Summary of the method: as §1

[4] = test system: barnyardgrass; assay: Test D flooded paddy test; format: in vivo, Echinochloa crus-galli; conditions: 250 g ai/ha, applied to paddy water, visual rating after 13 to 14 days, scale 0 to 100 (0 no effect, 100 complete control)
Summary of the method: (§2)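 Plants grown to the 2-leaf stage; pots flooded to 3 cm above soil at treatment and held at that depth throughout. Test compounds applied directly to the paddy water. After 13 to 14 days in a greenhouse, response was rated visually versus controls on a 0 (no effect) to 100 (complete control) scale.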

[5] = test system: kochia; assay: Test C preemergence; format: in vivo, Bassia scoparia
Summary of the method: as §1

[6] = test system: pigweed, palmer; assay: Test C postemergence; format: in vivo, Amaranthus palmeri; conditions: 10 days, 0 to 100 scale (0 no effect, 100 complete control)
Summary of the method: as §1

[7] = test system: soybean; assay: Test C postemergence; format: in vivo, Glycine max; conditions: 10 days, 0 to 100 scale (0 no effect, 100 complete control)
Summary of the method: as §1

[8] = test system: oat, wild; assay: Test C preemergence; format: in vivo, Avena fatua
Summary of the method: as §1

[9] = test system: wheat; assay: Test C preemergence; format: in vivo, Triticum aestivum
Summary of the method: as §1

[10] = test system: ragweed; assay: Test C postemergence; format: in vivo, Ambrosia artemisiifolia; conditions: 10 days, 0 to 100 scale (0 no effect, 100 complete control)
Summary of the method: as §1

[11] = test system: soybean; assay: Test C preemergence; format: in vivo, Glycine max
Summary of the method: as §1

[12] = test system: barnyardgrass; assay: Test C postemergence; format: in vivo, Echinochloa crusgalli; conditions: 10 days, 0 to 100 scale (0 no effect, 100 complete control)
Summary of the method: as §1

[13] = test system: ducksalad; assay: Test D flooded paddy test; format: in vivo, Heteranthera limosa; conditions: 250 g ai/ha, applied to paddy water, visual rating after 13 to 14 days, scale 0 to 100 (0 no effect, 100 complete control)
Summary of the method: as §2

[14] = test system: pigweed, palmer; assay: Test C preemergence; format: in vivo, Amaranthus palmeri
Summary of the method: as §1

[15] = test system: corn; assay: Test C postemergence; format: in vivo, Zea mays; conditions: 10 days, 0 to 100 scale (0 no effect, 100 complete control)
Summary of the method: as §1

[16] = test system: blackgrass; assay: Test C postemergence; format: in vivo, Alopecurus myosuroides; conditions: 10 days, 0 to 100 scale (0 no effect, 100 complete control)
Summary of the method: as §1

[17] = test system: ryegrass, Italian; assay: Test C postemergence; format: in vivo, Lolium multiflorum; conditions: 10 days, 0 to 100 scale (0 no effect, 100 complete control)
Summary of the method: as §1

[18] = test system: foxtail, giant; assay: Test C preemergence; format: in vivo, Setaria faberi
Summary of the method: as §1

[19] = test system: corn; assay: Test C preemergence; format: in vivo, Zea mays; conditions: 500 g ai/ha, preemergence; 0 to 100 scale (0 no effect, 100 complete control)
Summary of the method: as §1

[20] = test system: horseweed; assay: Test C postemergence; format: in vivo, Erigeron canadensis; conditions: 10 days, 0 to 100 scale (0 no effect, 100 complete control)
Summary of the method: as §1

[21] = test system: sedge, umbrella; assay: Test D flooded paddy test; format: in vivo, Cyperus difformis; conditions: 250 g ai/ha, applied to paddy water, visual rating after 13 to 14 days, scale 0 to 100 (0 no effect, 100 complete control)
Summary of the method: as §2

[22] = test system: barnyardgrass; assay: Test C preemergence; format: in vivo, Echinochloa crusgalli
Summary of the method: as §1

[23] = test system: galium; assay: Test C postemergence; format: in vivo, Galium aparine; conditions: 10 days, 0 to 100 scale (0 no effect, 100 complete control)
Summary of the method: as §1

[24] = test system: wheat; assay: Test C postemergence; format: in vivo, Triticum aestivum; conditions: 10 days, 0 to 100 scale (0 no effect, 100 complete control)
Summary of the method: as §1

[25] = test system: rice; assay: Test D flooded paddy test; format: in vivo, Oryza sativa; conditions: 250 g ai/ha, applied to paddy water, visual rating after 13 to 14 days, scale 0 to 100 (0 no effect, 100 complete control)
Summary of the method: as §2

[26] = test system: kochia; assay: Test C postemergence; format: in vivo, Bassia scoparia; conditions: 10 days, 0 to 100 scale (0 no effect, 100 complete control)
Summary of the method: as §1

[27] = test system: ragweed; assay: Test C preemergence; format: in vivo, Ambrosia artemisiifolia
Summary of the method: as §1

[28] = test system: ryegrass, Italian; assay: Test C preemergence; format: in vivo, Lolium multiflorum
Summary of the method: as §1

[29] = 500 g ai/ha, preemergence, 0 to 100 scale (0 no effect, 100 complete control)
[30] = Preemergence, 125 g ai/ha, 0 to 100 scale, 0 no effect, 100 complete control

Cc1ncn(-c2cccc(C(=O)N3C[C@H](C)Oc4c(Cl)cccc43)c2)n1 [Compound 326]
Plant response rating, Foxtail, Giant ([1]; 500 g ai/ha, postemergence): 90
Plant response rating, Foxtail, Giant ([1]; Postemergence, 125 g ai/ha): 70
Plant response rating, Oat, Wild ([2]; 500 g ai/ha, postemergence): 50
Plant response rating, Oat, Wild ([2]; Postemergence, 125 g ai/ha): 20
Blackgrass plant response rating [3, 29]: 90
Plant response rating, Blackgrass [3, 30]: 80
Plant response rating, Barnyardgrass (Flood) [4]: 15
Kochia plant response rating [5, 29]: 90
Plant response rating, Kochia [5, 30]: 80
Plant response rating, Pigweed, Palmer ([6]; 500 g ai/ha, postemergence): 60
Plant response rating, Pigweed, Palmer ([6]; Postemergence, 125 g ai/ha): 20
Plant response rating, Soybean ([7]; 500 g ai/ha, postemergence): 100
Plant response rating, Soybean ([7]; Postemergence, 125 g ai/ha): 100
Oat, Wild plant response rating [8, 29]: 80
Plant response rating, Oat, Wild [8, 30]: 30
Wheat plant response rating [9, 29]: 80
Plant response rating, Wheat [9, 30]: 20
Plant response rating, Ragweed ([10]; 500 g ai/ha, postemergence): 60
Plant response rating, Ragweed ([10]; Postemergence, 125 g ai/ha): 10
Soybean plant response rating [11, 29]: 80
Plant response rating, Soybean [11, 30]: 70
Plant response rating, Barnyardgrass ([12]; 500 g ai/ha, postemergence): 80
Plant response rating, Barnyardgrass ([12]; Postemergence, 125 g ai/ha): 30
Plant response rating, Ducksalad (Flood) [13]: 80
Pigweed, Palmer plant response rating [14, 29]: 100
Plant response rating, Pigweed, Palmer [14, 30]: 60
Plant response rating, Corn ([15]; 500 g ai/ha, postemergence): 80
Plant response rating, Corn ([15]; Postemergence, 125 g ai/ha): 10
Plant response rating, Blackgrass ([16]; 500 g ai/ha, postemergence): 80
Plant response rating, Blackgrass ([16]; Postemergence, 125 g ai/ha): 80
Plant response rating, Ryegrass, Italian ([17]; 500 g ai/ha, postemergence): 80
Plant response rating, Ryegrass, Italian ([17]; Postemergence, 125 g ai/ha): 40
Foxtail, Giant plant response rating [18, 29]: 100
Plant response rating, Foxtail, Giant [18, 30]: 100
Corn plant response rating [19]: 40
Plant response rating, Horseweed ([20]; 500 g ai/ha, postemergence): 50
Plant response rating, Horseweed ([20]; Postemergence, 125 g ai/ha): 0
Plant response rating, Sedge, Umbrella (Flood) [21]: 95
Barnyardgrass plant response rating [22, 29]: 90
Plant response rating, Barnyardgrass [22, 30]: 60
Plant response rating, Galium ([23]; 500 g ai/ha, postemergence): 100
Plant response rating, Galium ([23]; Postemergence, 125 g ai/ha): 100
Plant response rating, Wheat ([24]; 500 g ai/ha, postemergence): 40
Plant response rating, Wheat ([24]; Postemergence, 125 g ai/ha): 20
Plant response rating, Rice (Flood) [25]: 0
Plant response rating, Kochia ([26]; 500 g ai/ha, postemergence): 80
Plant response rating, Kochia ([26]; Postemergence, 125 g ai/ha): 80
Ragweed plant response rating [27, 29]: 0
Plant response rating, Ragweed [27, 30]: 0
Ryegrass, Italian plant response rating [28, 29]: 100
Plant response rating, Ryegrass, Italian [28, 30]: 90
